Measured values reported in PubChem BioAssay (NCI).
“And” between values parts separate entries of the source, which are not always exact repeats. Identical values can stand only once.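 Results reflect a 48-hour exposure of cells in 96-well plates to compound at five concentrations. Here, GI50 denotes the concentration required for 50% inhibition of growth. TGI is the concentration that stops growth completely.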

Key:
Test in all cases: DTP human tumour cell line panel, 48 h
ACHN renal = system: ACHN renal
HOP-62 NSCLC = system: HOP-62 NSCLC
HT29 colon = system: HT29 colon
M14 melanoma = system: M14 melanoma
MOLT-4 leukemia = system: MOLT-4 leukemia
SF-268 CNS = system: SF-268 CNS
SK-MEL-5 melanoma = system: SK-MEL-5 melanoma
SNB-75 CNS = system: SNB-75 CNS
SW-620 colon = system: SW-620 colon
TK-10 renal = system: TK-10 renal

SMILES	GI50 (ACHN renal) [µM]	TGI (ACHN renal)	GI50 (HOP-62 NSCLC) [µM]	TGI (HOP-62 NSCLC)	GI50 (HT29 colon) [µM]	TGI (HT29 colon)	GI50 (M14 melanoma) [µM]	TGI (M14 melanoma)	GI50 (MOLT-4 leukemia) [µM]	TGI (MOLT-4 leukemia)	GI50 (SF-268 CNS) [µM]	TGI (SF-268 CNS)	GI50 (SK-MEL-5 melanoma) [µM]	TGI (SK-MEL-5 melanoma)	GI50 (SNB-75 CNS) [µM]	TGI (SNB-75 CNS)	GI50 (SW-620 colon) [µM]	TGI (SW-620 colon)	GI50 (TK-10 renal) [µM]	TGI (TK-10 renal)
CCCCCCCCCCCCNC(=O)[C@H]1CSC(c2ccsc2)N1 (stereo partly specified)	0.938	1.75 µM	0.873	1.62 µM	0.995	1.83 µM	0.855	1.63 µM	0.895	1.84 µM	0.613	1.45 µM	1.36	5.22 µM	0.938	1.67 µM	0.969	1.85 µM	0.897	1.63 µM
NC(=O)c1ncn(C2OC(CO)C(O)C2O)c1NC(=S)NC(=O)c1ccccc1 (stereo unspecified)		> 100 µM		> 100 µM		> 100 µM		> 100 µM		> 100 µM		> 100 µM		> 100 µM		> 100 µM		> 100 µM		> 100 µM
CCCC/C=C1\CCC(CN2CCCC2)C1=O (stereo unspecified)		19.2 µM		33.3 µM		31.5 µM		23.4 µM		36.2 µM		29.9 µM		31.1 µM		32.4 µM		4.9 µM		6.3 µM
CN1C=C(C(N)=O)C2CC(O)[C@@](NC(=O)CS(N)(=O)=O)(C(=O)O)C2C1 (stereo partly specified)		97.3 µM		4.27 µM		10.6 µM		2.8 µM		31.6 µM		10.3 µM		15.7 µM		7.6 µM		> 91.5 µM		28.5 µM
COc1ccc(-c2nn(-c3cccc(Cl)c3)cc2/C=C2\C(=N)N(c3ccccc3)N=C2N)cc1	0.95	42.6 µM	16	> 80.6 µM	2.57	24.5 µM	0.331	5.42 µM	0.511	22.3 µM	4.52	> 100 µM	2.16	7.73 µM	18.8	98.6 µM	0.399	20.7 µM	7.77	> 95.8 µM
CNc1ccc(N=Nc2cccc3ncccc23)cc1	20.8	> 100 µM	49	> 100 µM	37.5	> 100 µM	44.3	> 100 µM	14.2	> 100 µM	39.3	> 100 µM	23	> 100 µM	21.2	> 100 µM	37.1	> 100 µM	> 100	> 100 µM
COc1ccccc1-c1nccc(COc2ccccc2C[C@@H](Oc2ncnc3sc(-c4ccc(F)cc4)c(-c4ccc(OCCN5CCN(C)CC5)c(Cl)c4C)c23)C(=O)O)n1	5.07	15.3 µM	2.39	7.21 µM	2.65	7.09 µM	1.73	4.05 µM	0.0436	1.54 µM	3.69	17.5 µM	1.71	3.12 µM	0.0348	1.29 µM	2.34	6.88 µM	3.46	14.9 µM
CCC1(Cl)C(=O)NC(=O)N(C2CC(O)C(CO)O2)C1N=[N+]=[N-] (stereo unspecified)		> 100 µM		> 100 µM		> 100 µM		> 100 µM		> 100 µM		> 100 µM		> 100 µM		> 100 µM		> 100 µM		> 100 µM
COc1cccc(C2CC(=O)Nc3cc4c(cc32)CCC4)c1OC (stereo unspecified)	6.72	> 84 µM	5.97	> 46.8 µM	3.26	12.6 µM	2.59	8.94 µM	3.16	10.2 µM	5.34	27.5 µM	2.9	11.1 µM	2.31	11.9 µM	3.11	> 46.2 µM	12.4	> 100 µM
Cc1cc(N(CCC#N)CCC#N)ccc1/C=C/C(=O)Nc1ccccc1Cl		> 100 µM		> 100 µM		> 100 µM		> 100 µM		> 100 µM		> 100 µM		> 100 µM		> 100 µM		> 100 µM		> 100 µM
Cc1cc(C)c2nccc(NCCCN(C)C)c2c1[N+](=O)[O-]		> 100 µM		> 100 µM		41.5 µM		33.7 µM		> 100 µM		95 µM		26.6 µM		> 100 µM		> 100 µM		> 100 µM
CC(=O)OC1Oc2cc(C)c(C)cc2-c2oc(=O)c(-c3ccccc3)cc21 (stereo unspecified)	1.34	> 100 µM	0.44	21.9 µM	0.323	4.39 µM	0.351	> 100 µM	0.355		0.58	> 50.6 µM	0.231	4.06 µM	0.21	0.902 µM	0.242	> 100 µM	1.14	> 44.9 µM
Cc1cc(C(=O)Nc2cc(Nc3ncccc3-c3ncnc4nc[nH]c34)ccc2F)cc(C(C)(C)C#N)c1	1.22	> 100 µM	0.461	> 100 µM	0.0739	> 100 µM	0.0388	1.12 µM	3.45	> 100 µM	7.85	> 100 µM	1.38	13.7 µM	8.92	> 100 µM	0.649	> 100 µM	4.07	> 100 µM
CCCC(=O)Nc1cn(COC)c(C(=O)N2C[C@H]3C[C@@]34C2=CC(=O)c2[nH]cc(C)c24)n1		50 µM and > 100 µM	4.52	50 µM and > 100 µM	12.4	25.2 µM and > 100 µM	7.14	50 µM and > 100 µM	1.6		3.4	50 µM and > 100 µM	2.53	16 µM and 9.93 µM	32	21.6 µM and > 100 µM	13.4	50 µM and > 100 µM		46.2 µM
COc1ccc(-c2nn(-c3cccc(Cl)c3)cc2-c2cc(-c3cccs3)no2)cc1	4.39	> 100 µM	13.9	28.1 µM	3.85	15.1 µM	3.3	17.1 µM	2.96	19.5 µM	4.94	47.1 µM	4.74	17.3 µM	3.52	34.7 µM	4.35	22.6 µM	5.21	43.8 µM
COC(=O)C1=C(C(=O)OC)C(C(=O)OC)C(C(=O)OC)C(C(=O)OC)(C(=O)OC)C(C(=O)OC)=C1C(=O)OC (stereo unspecified)		28.4 µM		58.1 µM		35.3 µM		29.8 µM		6.71 µM		42.3 µM		31.6 µM		34.5 µM		16.8 µM		29 µM
Cc1cc(Nc2cc(N3CCN(C)CC3)nc(C#Cc3ccccc3)n2)n[nH]1	1.06	11.7 µM	3.19	13.9 µM	2.02	8.08 µM	1.4	14.7 µM	3.46	19.2 µM	3.82	16.8 µM	4.32	16.5 µM	0.725	2.91 µM	2.72	14.4 µM	0.897	6.79 µM
C=C1C(=O)C23CC1CCC2C12CO[C@@]3(O)[C@@H](O)C1C(C)(C)C=CC2=O (stereo partly specified)	3.36	1.42 µM and 11.5 µM	25.2	14.4 µM and 67.2 µM	2.12	0.756 µM and 5.49 µM		6.1 µM	2.6	2.15 µM and 9.87 µM	3.11	6.77 µM and 11 µM		19.1 µM	13.6	12.7 µM and 26.4 µM		10.2 µM	4.51	1.55 µM and 11.2 µM
COc1cc(-c2nn3c(=O)n(-c4ccc(Cl)cc4)c(=O)nc3s2)cc(OC)c1OC	> 50	> 67.7 µM		> 71.9 µM	> 50	> 100 µM	28	50 µM and > 100 µM	30.7	50 µM and > 100 µM	33.1	> 100 µM		> 100 µM	17.2	43.1 µM and 21.1 µM	> 50	> 100 µM	19.7	50 µM and 29.6 µM
N=C(N)SCC(=O)O		> 100 µM		> 100 µM		> 100 µM		> 100 µM		> 100 µM		> 100 µM		> 100 µM		> 100 µM		> 100 µM		> 100 µM
CN1CCN(CCCOc2ccc3ncnc(Nc4ccc(Oc5cccc(F)c5)c(Cl)c4)c3c2)CC1	1.02	2.19 µM	1.75	3.76 µM	1.55	4.11 µM	1.79	3.62 µM	1.76	4.35 µM	1.47	3.14 µM	1.62	3.01 µM	1.4	2.75 µM	1.68	3.25 µM	1.05	2.32 µM
COc1cc(/C=C2\C(=O)Nc3ccc(Br)cc32)cc(OC)c1OC	31.9	> 100 µM	20.3	81.4 µM	3.82	> 100 µM	15.7	> 100 µM	8.51	> 100 µM	36.9	> 100 µM	6.33	> 100 µM	4.01	14.5 µM	3.74	> 100 µM	4.65	30.1 µM
